Laboratory results from patent US6544727B1, “Methods and devices for the removal of psoralens from blood products” (Cerus Corporation, priority 1995, dated 2003).
“Also recorded” adds a separate entry of the source. Like-named read-outs stand apart in the source and are kept apart here.

Key:
[1] = tested on: Salmonella typhimurium tester strains; experiment: Ames Salmonella dark mutagenicity test, overall assessment; type: cell-based; settings: two-fold or greater increase in revertants above background and dose dependence
Description: A brief description for each procedure is given here. […] TA97a, TA98, TA1537 and TA1538 are frameshift tester strains. TA100 and TA102 are base-substitution tester strains.
This served as the background controls.
For all experiments, the pre-incubation procedure was used.

p-selectin (GMP140) = experiment: GMP-140 (p-selectin) expression on platelets, flow cytometry with CD62; type: cell-based, human; settings: 100 μM compound, 5 Joules/cm^2, 5 days storage; FIGS. 21C-24C
Description: To measure the effects of the present compounds and methods of decontamination on platelet function using these four indicators, four samples were prepared for each compound tested, two control samples and two containing compound. Three units of human platelets were obtained from the Sacramento Blood Center, Sacramento, Calif. These were each transferred under sterile conditions to 50 ml centrifuge tubes, then aliquots of each unit were transferred into a second set of 50 ml sterile centrifuge tubes. To each centrifuge tube containing platelet concentrate (PC), an aliquot of compound stock was added to reach a final concentration of 100 μM of compound. […] The samples were pipetted gently up and down to mix. Then aliquots (either 3 ml or 8 ml) of each sample was transferred to two sterile Teflon™ Medi-bags™ (American Fluoroseal Co., Silver Springs, Md.) (presently owned by The West Company, Lionville, Pa.). Samples were treated in one of two different sized bags, having either 3 ml or 8 ml capacity. […] For each compound tested, two control samples without compound were prepared by again removing aliquots of platelet concentrate (17 ml if using an 8 ml bag, […] if using a 3 ml bag) from the same one of the first set of 50 ml centrifuge tubes from which the compound sample was drawn, and dividing into Medibags, as before. One of each pair of Medibags containing a compound, and one of each pair of control Medibags, were illuminated for 5 Joules/cm^2 on the device described in Example 1, above. Then all experimental and control Medibags were placed on a platelet shaker for storage for 5 days. The same experiments were repeated several times to obtain more statistically meaningful data, as represented by “n”, the number of data points represented, in the graphs of FIGS. 21-24, discussed below.

mouse reticulocytes = settings: for PCE/RBC (%): tail vein, once per day for four days, blood on day 5; for bone marrow toxicity and micronucleus formation on dose escalation (in words): increased dose levels in male Balb/c mice
Description: Male Balb/c mice were then injected with 0.1 ml of a compound solution via the tail vein. At least 3 mice were injected per dose level. Saline only was used as a negative control. For a positive control, cyclophosphamide (cycloPP) was administered at a dose of 30 mg/kg. In the experimental group, the injections were repeated once per day for four days. In the positive control group, the sample was administered only once, on day three. On day 5, several microliters of blood were withdrawn from each subject and smeared on a glass slide. Cells were fixed in absolute methanol and stored in a slide rack.
For analysis, cells were stained with acridine orange and visualized under a fluorescence microscope by counting: (i) the number of reticulocytes per 5000 erythrocytes; and (ii) the number of micronucleated reticulocytes per 1000 reticulocytes. Reticulocytes were distinguished by their red fluorescence due to the presence of RNA. Micronuclei were distinguished by their green fluorescence due to the presence of DNA. The percentage of reticulocytes (%PCE) was then calculated. A decrease in the frequency of […] in the percentage of reticulocytes, is an indication of bone marrow toxicity. The percentage of reticulocytes with micronuclei (%PCE with MN) was also calculated. An increase in %PCE with MN is a measure of clastogenicity.
After initial results were determined, the experiment was repeated using increased dose levels, until: (i) Micronucleus formation was seen; or (ii) Bone marrow toxicity was observed; or (iii) The lethal dose was reached; or (iv) A dose of 5 g/kg was administered.

HIV-1 = settings: for HIV Log Kill: 1 minute irradiation
R17 bacteriophage = R17 bacteriophage inactivation assay, varying compound concentration; type: cell-based; settings: for R17 inactivation efficiency compared with AMT or 8-MOP (in words): varying concentration, Tables 6-9, FIGS. 6-10
Procedure, shortened: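 R17 phage (10^9/mL in DMEM with 15% FBS) mixed with compound at 4–320 μM and irradiated 1–10 min. Surviving phage titred by serial dilution and plaque assay on Hfr 3000 bacteria after overnight incubation at 37 °C; controls were untreated phage, UV without compound, and compound without irradiation.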

[2] = 16 μM, starting titer approximately 5.4 logs (Table 11)
[3] = 32 μM, starting titer approximately 5.4 logs (Table 11)
[4] = 64 μM, starting titer approximately 5.4 logs (Table 11)
[5] = 8 μM, starting titer approx. 7.2 logs, 1 minute irradiation (Table 7)
[6] = 16 μM, starting titer approx. 7.1 logs, 1 minute irradiation (Table 9)
[7] = 16 μM, starting titer approx. 7.1 logs, 1 minute irradiation = 1.2 J/cm^2 (Table 8)
[8] = 16 μM, starting titer approx. 7.2 logs, 1 minute irradiation (Table 7)
[9] = 32 μM, starting titer approx. 7.1 logs, 1 minute irradiation = 1.2 J/cm^2 (Table 8)
[10] = 32 μM, starting titer approx. 7.2 logs, 1 minute irradiation (Table 7)
[11] = 16 μM, starting titer approximately 5 logs (Table 10)
[12] = 32 μM, starting titer approximately 5 logs (Table 10)
[13] = 64 μM, starting titer approximately 5 logs (Table 10)

SMILES	mutagenic response in the Ames assay (in words) [1]	GMP-140 expression, treated sample (PCD) against day 5 untreated control (in words) (p-selectin (GMP140))	bone marrow toxicity and micronucleus formation on dose escalation (in words) (mouse reticulocytes)	HIV Log Kill (HIV-1; [2])	HIV Log Kill (HIV-1; [3])	HIV Log Kill (HIV-1; [4])	R17 Log Kill (R17 bacteriophage; [5])	R17 Log Kill (R17 bacteriophage; [6])	R17 Log Kill (R17 bacteriophage; [7])	R17 Log Kill (R17 bacteriophage; [8])	R17 Log Kill (R17 bacteriophage; [9])	R17 Log Kill (R17 bacteriophage; [10])	HIV Log Kill (HIV-1; [11])	R17 inactivation efficiency compared with AMT or 8-MOP (in words) (R17 bacteriophage)	HIV Log Kill (HIV-1; [12])	HIV Log Kill (HIV-1; [13])	other results
Cc1cc(=O)oc2c(C)c3oc(COCCN)c(C)c3cc12 [Compound 18, 5′-(4-amino-2-oxa)butyl-4,4′,8-trimethylpsoralen]	only a weak response at high concentrations in the presence of S9	notable increase above the control	the acutely lethal dose was reached before there were any signs of bone marrow toxicity or micronucleus formation	1.0 log	1.0 log	3.1 log	–	–	–	–	–	–	–	–	–	–	PCE/RBC (%) (mouse reticulocytes; 3.75 mg/kg): 3.61 ± 1.14%; PCE/RBC (%) (mouse reticulocytes; 7.5 mg/kg): 3.59 ± 0.33%; PCE/RBC (%) (mouse reticulocytes; 20 mg/kg): 3.48 ± 0.79%
Cc1oc2c(C)c3oc(=O)cc(C)c3cc2c1CN [AMT, 4′-Aminomethyl-4,5′,8-trimethylpsoralen, reference compound]	showed frameshift mutagenicity at between 5 and 10 μg/plate in TA97a and TA98, at 5 μg/plate in TA1537 and at 1 μg/plate in TA1538; also recorded: no significant base-substitution mutations	–	–	–	–	–	2.7 log	>6 log	4.5 log	4.6 log	4.8 log	>6.2 log	1.4 log	–	–	–	R17 Log Kill (R17 bacteriophage; 32 μM, starting titer approx. 7.1 logs, 1 minute irradiation (Table 9)): >6 log; R17 log kill (32 μM) (R17 bacteriophage; 32 μM, starting titer approx. 7.5 logs, 1 minute irradiation): >6.7 log
Cc1oc2c(C)c3oc(=O)cc(C)c3cc2c1CNCCCCN [Compound 6, 4′-(6-amino-2-aza)hexyl-4,5′,8-trimethylpsoralen]	no base substitution mutagenicity; also recorded: frameshift response in TA98 in the presence of S9 at concentrations of 250 μg/plate and above	little or no difference	the acutely lethal dose was reached before there were any signs of bone marrow toxicity or micronucleus formation	2.1 log	3.2 log	>2.8 log	–	>6 log	>6.1 log	–	>6.1 log	–	2.0 log	significantly higher inactivation efficiency than does AMT	3.1 log	>3.8 log	R17 Log Kill (R17 bacteriophage; 8 μM, starting titer approx. 7.1 logs, 1 minute irradiation (Table 9)): >6 log; R17 Log Kill (R17 bacteriophage; 64 μM, starting titer approx. 7.1 logs, 1 minute irradiation = 1.2 J/cm^2 (Table 8)): >6.1 log; PCE/RBC (%) (mouse reticulocytes; 30 mg/kg): 3.61 ± 0.12%; PCE/RBC (%) (mouse reticulocytes; 45 mg/kg): 3.79 ± 0.41%
Cc1oc2c(C)c3oc(=O)cc(C)c3cc2c1COCCN [Compound 2, 4′-(4-amino-2-oxa)butyl-4,5′,8-trimethylpsoralen]	weak frameshift mutagenicity in the presence of S9 in TA98 and TA1537	little or no difference	the acutely lethal dose was reached before there were any signs of bone marrow toxicity or micronucleus formation	–	–	–	3.8 log	–	–	>6.2 log	–	>6.2 log	1.4 log	significantly higher inactivation efficiency than does AMT	3.8 log	>4.5 log	HIV inactivation compared with AMT (in words) (HIV-1; cell-free HIV, 64 μM of compound or higher for compounds 2 and 3): significantly more active than AMT
